From patent US5023240A, “Derivatives of tylosin and 10,11,12,13-tetrahydro tylosin and their use in pharmaceuticals” (Sour Pliva, priority 1987, dated 1991)
In brackets after ≈: the same amount, converted by molar mass.

Legend:
Assay type in all cases: cell-based
Strep. pneumoniae = assay: antimicrobial activity, MIC by agar dilution method, Strep. pneumoniae; design: key to Minimal Inhibitory Concentration: R: resistant; conditions: 3 test strains, MIC refers to over 90% of tested strains; for MIC90: Streptococcus pneumoniae, read-out: Minimal Inhibitory Concentration
Description: (§1) The antimicrobial activity of some compounds of the present invention was tested on the laboratory strain Sarcina lutea and on 50 various strains isolated from fresh patients' samples. The minimal inhibitory concentration (MIC) was determined by the agar dilution method as described by M. D. Finegold and J. W. Martin, Diagnostic Microbiology, Mosby Comp., St. Louis 1982, p. 536-540.

Sarcina lutea = assay: antimicrobial activity, MIC by agar dilution method, Sarcina lutea; conditions: Micrococcus luteus, 4 test strains, MIC refers to over 90% of tested strains, read-out: Minimal Inhibitory Concentration
Description: as §1

Staph. saproph. = assay: antimicrobial activity, MIC by agar dilution method, Staph. saproph.; design: key to Minimal Inhibitory Concentration: R: resistant; conditions: 6 test strains, MIC refers to over 90% of tested strains; for MIC90: read-out: Minimal Inhibitory Concentration
Description: as §1

Staph. aureus = assay: antimicrobial activity, MIC by agar dilution method, Staph. aureus; design: key to Minimal Inhibitory Concentration: R: resistant; conditions: 13 test strains, MIC refers to over 90% of tested strains; for MIC90: Staphylococcus aureus, read-out: Minimal Inhibitory Concentration
Description: as §1

Strep. faecalis = assay: antimicrobial activity, MIC by agar dilution method, Strep. faecalis; design: key to Minimal Inhibitory Concentration: R: resistant; conditions: 17 test strains, MIC refers to over 90% of tested strains; for MIC90: Enterococcus faecalis, read-out: Minimal Inhibitory Concentration
Description: as §1

Strep. agalact. = assay: antimicrobial activity, MIC by agar dilution method, Strep. agalact.; design: key to Minimal Inhibitory Concentration: R: resistant; conditions: 2 test strains, MIC refers to over 90% of tested strains; for MIC90: read-out: Minimal Inhibitory Concentration
Description: as §1

Row | SMILES | MIC90 (Strep. pneumoniae) | MIC90 (Sarcina lutea) | MIC90 (Staph. saproph.) | MIC90 (Staph. aureus) | MIC90 (Strep. faecalis) | MIC90 (Strep. agalact.) | Minimal Inhibitory Concentration (Staph. saproph.) | Minimal Inhibitory Concentration (Staph. aureus) | Minimal Inhibitory Concentration (Strep. faecalis) | Minimal Inhibitory Concentration (Strep. agalact.) | Minimal Inhibitory Concentration (Strep. pneumoniae)
1 | CCC1OC(=O)CC(O)C(C)C(OC2OC(C)C(OC3CC(C)(O)C(O)C(C)O3)C(N(C)C)C2O)C(CC=O)CC(C)C(=O)CCC(C)CC1COC1OC(C)C(O)C(OC)C1OC (centres unmarked) [II, 10,11,12,13-tetrahydro tylosin] | 0.5 µg/mL (≈ 0.543 µM) | 0.5 µg/mL (≈ 0.543 µM) | 1 to 2 µg/mL (≈ 1.09 to 2.17 µM) | 2 to 4 µg/mL (≈ 2.17 to 4.35 µM) | 4 to 8 µg/mL (≈ 4.35 to 8.69 µM) | 1 to 2 µg/mL (≈ 1.09 to 2.17 µM) |  |  |  |  | 
2 | CCC1OC(=O)CC(O)C(C)C(OC2OC(C)C(OC3CC(C)(O)C(O)C(C)O3)C(N(C)C)C2O)C(CC=O)CC(C)C(O)CCC(C)CC1COC1OC(C)C(O)C(OC)C1OC (centres unmarked) [VI, 9-deoxo-9-hydroxy-10,11,12,13-tetrahydro tylosin] | 0.5 µg/mL (≈ 0.542 µM) | 0.5 µg/mL (≈ 0.542 µM) | 2 to 4 µg/mL (≈ 2.17 to 4.34 µM) | 4 µg/mL (≈ 4.34 µM) | 8 to 32 µg/mL (≈ 8.68 to 34.7 µM) | 2 to 8 µg/mL (≈ 2.17 to 8.68 µM) |  |  |  |  | 
3 | CCC1OC(=O)CC(O)C(C)C(OC2OC(C)C(OC3CC(C)(O)C(O)C(C)O3)C(N(C)C)C2O)C(CCO)CC(C)C(=O)C=CC(C)=CC1COC1OC(C)C(O)C(OC)C1OC (centres unmarked) [Ia, 20-deoxo-20-hydroxy tylosin, reference compound] | 0.5 to 1 µg/mL (≈ 0.545 to 1.09 µM) | 1 µg/mL (≈ 1.09 µM) | 1 to 16 µg/mL (≈ 1.09 to 17.4 µM) | 4 to 16 µg/mL (≈ 4.36 to 17.4 µM) | 64 µg/mL (≈ 69.7 µM) | 16 µg/mL (≈ 17.4 µM) |  |  |  |  | 
4 | CCC1OC(=O)CC(O)C(C)C(OC2OC(C)C(OC3CC(C)(O)C(O)C(C)O3)C(N(C)C)C2O)C(CC=NO)CC(C)C(=O)CCC(C)CC1COC1OC(C)C(O)C(OC)C1OC (centres unmarked) [XIX, 10,11,12,13-tetrahydro tylosin aldoxime] | 1 µg/mL (≈ 1.07 µM) | 0.5 µg/mL (≈ 0.535 µM) | 8 µg/mL (≈ 8.55 µM) | 8 to 16 µg/mL (≈ 8.55 to 17.1 µM) |  |  |  |  |  |  | 

More lines, main results first:

Row | MIC90 (Strep. pneumoniae) | MIC90 (Sarcina lutea) | MIC90 (Staph. saproph.) | MIC90 (Staph. aureus) | MIC90 (Strep. faecalis) | MIC90 (Strep. agalact.) | SMILES | Minimal Inhibitory Concentration (Staph. saproph.) | Minimal Inhibitory Concentration (Staph. aureus) | Minimal Inhibitory Concentration (Strep. faecalis) | Minimal Inhibitory Concentration (Strep. agalact.) | Minimal Inhibitory Concentration (Strep. pneumoniae)
5 | 0.5 µg/mL (≈ 0.537 µM) | 0.5 µg/mL (≈ 0.537 µM) | 0.5 to 2 µg/mL (≈ 0.537 to 2.15 µM) | 1 to 4 µg/mL (≈ 1.07 to 4.3 µM) | 1 to 4 µg/mL (≈ 1.07 to 4.3 µM) | 0.5 µg/mL (≈ 0.537 µM) | CCC1OC(=O)CC(O)C(C)C(OC2OC(C)C(OC3CC(C)(O)C(O)C(C)O3)C(N(C)C)C2O)C(CC=NO)CC(C)C(=O)C=CC(C)=CC1COC1OC(C)C(O)C(OC)C1OC (centres unmarked) [XII, Tylosin aldoxime] |  |  |  |  | 
6 | 64 µg/mL (≈ 68.3 µM) | 0.5 µg/mL (≈ 0.534 µM) |  |  |  |  | CCC1OC(=O)CC(O)C(C)C(OC2OC(C)C(OC3CC(C)(O)C(O)C(C)O3)C(N(C)C)C2O)C(CCO)CC(C)C(=NO)CCC(C)CC1COC1OC(C)C(O)C(OC)C1OC (centres unmarked) [XXIII, 10,11,12,13-tetrahydro relomycin oxime] | R | R | R | R | 
7 | 2 to 4 µg/mL (≈ 2.1 to 4.21 µM) | 1 µg/mL (≈ 1.05 µM) | 16 µg/mL (≈ 16.8 µM) | 16 to 32 µg/mL (≈ 16.8 to 33.7 µM) |  |  | CCC1OC(=O)CC(O)C(C)C(OC2OC(C)C(OC3CC(C)(O)C(O)C(C)O3)C(N(C)C)C2O)C(CC=NO)CC(C)C(=NO)CCC(C)CC1COC1OC(C)C(O)C(OC)C1OC (centres unmarked) [XX, 10,11,12,13tetrahydro tylosin dioxime] |  |  |  |  | 
8 |  | 1 µg/mL (≈ 1.08 µM) |  | 32 µg/mL (≈ 34.7 µM) |  |  | CCC1OC(=O)CC(O)C(C)C(OC2OC(C)C(OC3CC(C)(O)C(O)C(C)O3)C(N(C)C)C2O)C(CCO)CC(C)C(=O)CCC(C)CC1COC1OC(C)C(O)C(OC)C1OC (centres unmarked) [III, 10,11,12,13-tetrahydro relomycin] | R |  | R | R | R
9 | 0.5 µg/mL (≈ 0.536 µM) | 0.5 µg/mL (≈ 0.536 µM) | 4 to 16 µg/mL (≈ 4.29 to 17.1 µM) | 64 µg/mL (≈ 68.6 µM) |  | 64 µg/mL (≈ 68.6 µM) | CCC1OC(=O)CC(O)C(C)C(OC2OC(C)C(OC3CC(C)(O)C(O)C(C)O3)C(N(C)C)C2O)C(CCO)CC(C)C(=NO)C=CC(C)=CC1COC1OC(C)C(O)C(OC)C1OC (centres unmarked) [XVIII, relomycin oxime] |  |  | R |  | 
